Experimental data reported in article PMC5948155 (ACS infectious diseases, 2018).
Entries after “also recorded” stand apart in the source; their conditions may differ. Where a name gives a salt, the structure may show the parent alone. Read-outs that look alike come from different tables or passages of the source.

Key:
Assay type in all cases: cell-based
[1] = biological target: T1, cholera toxin subunit B (CTB) (Vibrio cholerae serotype O1, UniProt P01556)
[2] = biological target: T1, cholera toxin subunit B (CTB); experiment: cell-based
[3] = biological target: T2, Aleuria aurantia lectin (AAL) (Aleuria aurantia, UniProt P18891)
T2 sequence (P18891 1-313): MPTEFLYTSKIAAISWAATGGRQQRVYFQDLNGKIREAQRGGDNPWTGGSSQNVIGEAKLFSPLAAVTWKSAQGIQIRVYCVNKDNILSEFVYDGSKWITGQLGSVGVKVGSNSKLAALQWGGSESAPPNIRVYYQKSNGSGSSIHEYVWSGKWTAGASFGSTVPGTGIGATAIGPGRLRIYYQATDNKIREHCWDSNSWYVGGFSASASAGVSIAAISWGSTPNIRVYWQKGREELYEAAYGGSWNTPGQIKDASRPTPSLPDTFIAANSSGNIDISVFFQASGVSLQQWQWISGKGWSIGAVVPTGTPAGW

[4] = biological target: T2, Aleuria aurantia lectin (AAL); remark: listed apart in the source
[5] = biological target: T1, cholera toxin subunit B (CTB); remark: listed apart in the source
[6] = biological target: T3, Maackia amurensis lectin I (MAL I) (Maackia amurensis, UniProt P0DKL3)
T3 sequence (P0DKL3 30-287): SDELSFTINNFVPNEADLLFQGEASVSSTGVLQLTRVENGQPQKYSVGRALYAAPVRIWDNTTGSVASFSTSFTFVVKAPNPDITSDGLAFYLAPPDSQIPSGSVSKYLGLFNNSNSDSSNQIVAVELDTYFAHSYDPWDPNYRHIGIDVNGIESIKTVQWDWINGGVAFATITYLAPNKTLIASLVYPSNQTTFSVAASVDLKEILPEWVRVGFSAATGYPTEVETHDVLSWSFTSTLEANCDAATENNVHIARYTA

CTB = CTB (Vibrio cholerae serotype O1, UniProt P01556)
Sequence of CTB (P01556 22-124 limits assumed): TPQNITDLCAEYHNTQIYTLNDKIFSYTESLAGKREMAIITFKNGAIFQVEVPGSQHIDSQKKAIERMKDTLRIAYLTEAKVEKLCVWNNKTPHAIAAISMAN

[7] = biological target: Sambucus nigra lectin (SNA) (Sambucus nigra, UniProt Q41358)
Sequence of Sambucus nigra lectin (SNA) (Q41358 309-570 limits assumed): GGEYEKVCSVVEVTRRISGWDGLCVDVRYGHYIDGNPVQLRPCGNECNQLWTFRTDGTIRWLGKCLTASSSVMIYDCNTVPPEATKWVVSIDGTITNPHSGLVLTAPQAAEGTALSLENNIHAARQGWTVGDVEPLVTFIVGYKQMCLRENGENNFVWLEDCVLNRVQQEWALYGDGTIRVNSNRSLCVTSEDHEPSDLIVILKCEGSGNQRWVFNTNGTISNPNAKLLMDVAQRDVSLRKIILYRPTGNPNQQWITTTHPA
Sequence of Sambucus nigra lectin (SNA) (Q41358 29-292 partner limits assumed): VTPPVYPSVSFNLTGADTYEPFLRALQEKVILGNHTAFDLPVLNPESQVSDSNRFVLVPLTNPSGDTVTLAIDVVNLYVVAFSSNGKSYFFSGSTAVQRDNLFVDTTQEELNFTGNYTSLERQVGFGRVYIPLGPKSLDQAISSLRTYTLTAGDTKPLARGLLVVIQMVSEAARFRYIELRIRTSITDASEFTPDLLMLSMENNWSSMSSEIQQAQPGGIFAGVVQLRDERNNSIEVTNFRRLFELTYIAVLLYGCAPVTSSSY

T1 sequence (P01556 22-124 limits assumed): as the sequence (P01556 22-124 limits assumed) above

Compound | Inhibition of CTB binding to T84 cells (in words) [1] | Inhibition of CTB binding to Colo205 cells (in words) [2] | Inhibition of AAL binding to Colo205 cells (in words) [4] | further results
C[C@H](O)[C@@H](O)[C@@H](O)[C@H](F)C=O [2-deoxy-2-fluoro-L-fucose, 2-Deoxy-2-fluoro-L-fucose] | indistinguishable | indistinguishable | – | –
C[C@H](O)[C@@H](O)[C@@H](O)[C@H](O)C=O [L-fucose, l-(−)-Fucose] | dramatically suppress; also recorded: suppression of CTB binding was observed | – | effectively block | CTB binding, % of the no sugar control [2]: ~ 20%; IC50 [2]: 14.5 mM; Inhibition of AAL binding to T84 cells (in words) [3]: effectively block
CC(=O)N[C@H]1C(O)O[C@H](CO)[C@@H](O[C@@H]2O[C@H](CO)[C@H](O)[C@H](O)[C@H]2O[C@@H]2O[C@@H](C)[C@@H](O)[C@@H](O)[C@@H]2O)[C@@H]1O (stereo partly shown) [H antigen, Blood group H antigen triaose type 2] | – | – | – | Reduction of CTB binding compared to the no sugar control [2]: at least 75%
CC(=O)NC1C(O)CC(OC2C(O)C(OC3C(CO)OC(O)C(O)C3O)OC(CO)C2OC2OC(CO)C(O)C(OC3OC(CO)C(O)C(O)C3O)C2NC(C)=O)(C(=O)O)OC1C(O)C(O)CO (stereo not shown) [GM1a(os), GM1a ganglioside sugar] | – | – | – | Inhibition of CTB binding to T84 cells, titration of inhibitor (in words) [1]: could not completely inhibit CTB binding; CTB binding, % of the no sugar control [2]: ~ 5%; Fold more potent than LeY in inhibiting CTB binding [2]: approximately 2000 fold; IC50 ([2]; read-out: IC50 against CTB binding): 0.000109 ± 3.8e-05 mM
C[C@@H]1O[C@@H](O[C@H]2[C@H](O[C@H]3[C@H](O[C@@H]4O[C@@H](C)[C@@H](O)[C@@H](O)[C@@H]4O)[C@@H](O)C(O)O[C@@H]3CO)O[C@H](CO)[C@H](O)[C@@H]2O)[C@@H](O)[C@H](O)[C@@H]1O (stereo partly shown) [DF-L, Difucosyllactose] | – | – | more efficient | Reduction of CTB binding compared to the no sugar control [2]: at least 75%
C[C@H](O)C[C@@H](O)[C@H](O)C=O [4-deoxy-fucose, 4-Deoxy-L-fucose] | complete loss in inhibitory potential | complete loss in inhibitory potential | – | –
CC(=O)N[C@H]1[C@H]([C@H](O)[C@H](O)CO)O[C@@](O[C@H]2[C@@H](O)[C@@H](CO)O[C@@H](O[C@@H]([C@H](O[C@@H]3O[C@@H](C)[C@@H](O)[C@@H](O)[C@@H]3O)[C@H](C=O)NC(C)=O)[C@H](O)CO)[C@@H]2O)(C(=O)O)C[C@@H]1O [sLeX, 3′-Sialyl Lewis X] | – | – | – | Inhibition of CTB binding to T84 cells, titration of inhibitor (in words) [1]: near complete inhibition; Inhibitory potential, fold less than that of LeY [2]: 2 fold; AAL lectin retained bound to the cell surface [4]: ~ 70%
C[C@@H](O)[C@@H](O)[C@H](O)[C@@H](O)C=O [6-deoxy-D-glucose] | no effect | only minor effects | virtually no effect | Inhibition of AAL binding to T84 cells (in words) [3]: virtually no effect
OC1OC[C@@H](O)[C@@H](O)[C@@H]1O (stereo partly drawn) [D-arabinose, d-(−)-Arabinose] | indistinguishably from the no sugar control | indistinguishably from the no sugar control | effective inhibitors | Inhibition of AAL binding to T84 cells (in words) [3]: effective inhibitors
CC(=O)N[C@H]1C(O)O[C@H](CO)[C@@H](O[C@@H]2O[C@H](CO)[C@H](O)[C@H](O)[C@H]2O[C@@H]2O[C@@H](C)[C@@H](O)[C@@H](O)[C@@H]2O)[C@@H]1O[C@@H]1O[C@@H](C)[C@@H](O)[C@@H](O)[C@@H]1O (mixture of isomers) [LeY, Fucα2Galβ4[Fucα3]GlcNAc] | – | most potent blocker | more efficient; also recorded: capable of inhibiting | Inhibition of CTB binding to T84 cells, titration of inhibitor (in words) [1]: near complete inhibition; CTB binding, % of the no sugar control [2]: ~ 20%; Inhibition of CTB binding to primary human jejunal epithelial cells (in words) [5]: effectively block; AAL lectin retained bound to the cell surface [4]: ~ 15%
CC1OC(OC2C(OC3C(CO)OC(O)C(O)C3O)OC(CO)C(O)C2O)C(O)C(O)C1O (stereo not shown) [2′-FL, 2′-Fucosyllactose] | more potent inhibitor | more potent inhibitor than L-fucose alone | inhibit binding | IC50 [2]: 3 mM; Reduction of CTB binding compared to the no sugar control [2]: at least 75%; Reduction of IC50 relative to L-fucose [2]: ~ 5 fold
C[C@H]1OC(O)[C@H](O)[C@@H](O)[C@H]1O (stereo partly drawn) [D-fucose, d-(+)-Fucose] | only a modest effect | only minor effects | virtually no effect | Inhibition of AAL binding to T84 cells (in words) [3]: virtually no effect
CC(=O)N[C@H]1[C@H]([C@H](O)[C@H](O)CO)O[C@@](O[C@H]2[C@@H](O)[C@@H](CO)O[C@@H](O[C@H]3[C@H](O)[C@@H](NC(C)=O)C(O)O[C@@H]3CO)[C@@H]2O)(C(=O)O)C[C@@H]1O (stereo partly shown) [3′-SLN, 3′-Sialyl-N-acetyllactosamine] | – | incapable of inhibiting | – | –
Asialo-GM1-tetrasaccharide [GA1(os)] | – | significantly attenuated | – | Inhibition of CTB binding to T84 cells, titration of inhibitor (in words) [1]: no inhibition
O=C[C@@H](O)[C@H](O)[C@H](O)[C@@H](O)CO [L-galactose, L-Galactose] | modest loss in inhibition | modest loss in inhibition | effective inhibitors | Inhibition of AAL binding to T84 cells (in words) [3]: effective inhibitors
C[C@@H]1OC(O)[C@@H](O)C[C@@H]1O (stereo partly drawn) [L-colitose] | significant loss in inhibitory potential | – | – | –
CC(=O)NC1C(O)OC(CO)C(OC2OC(CO)C(O)C(OC3OC(CO)C(O)C(O)C3O)C2OC2OC(C)C(O)C(O)C2O)C1OC1OC(C)C(O)C(O)C1O (stereo not shown) [BLeY] | – | failed to produce a further increase in potency; also recorded: comparable blocking activity as LeY | – | –
OC[C@H]1O[C@@H](O[C@H]2[C@H](O)[C@@H](O)[C@H](O)O[C@@H]2CO)[C@H](O)[C@@H](O)[C@H]1O [lactose, d-Lactose monohydrate] | did not inhibit | – | – | inhibition at 100000 µM ([2]; COLO 205, read-out: Inhibition of CTB binding): ~50%
CC(=O)N[C@H]1[C@H]([C@H](O)[C@H](O)CO)O[C@@](O[C@H]2[C@@H](O)[C@@H](CO)O[C@@H](O[C@H]3[C@H](O)[C@@H](O)C(O)O[C@@H]3CO)[C@@H]2O)(C(=O)O)C[C@@H]1O (stereo partly shown) [3′-SL, 3′-Sialyllactose sodium salt] | no inhibition | no inhibition | – | Inhibition of MAL I binding (in words) [6]: enhance the inhibitory potential of lactose
CO[C@@H]1O[C@@H](C)[C@@H](O)[C@@H](O)[C@@H]1O [methyl α-L-fucose, Methyl a-L-fucopyranoside] | suppression of CTB binding was observed | inhibited CTB binding as efficiently as L-fucose | – | –
O=C[C@@H](O)[C@H](O)[C@@H](O)[C@@H](O)CO [L-glucose] | – | – | – | Inhibition of CTB binding (in words) (CTB): loss of all inhibitory activity
CC(=O)N[C@H]1C(O)O[C@H](CO)[C@@H](O[C@@H]2O[C@H](CO)[C@H](O)[C@H](O)[C@H]2O)[C@@H]1O (stereo partly drawn) [LacNAc, N-Acetyl-D-lactosamine] | – | – | – | Inhibition of CTB binding to primary human jejunal epithelial cells (in words) [5]: no inhibition
COC1OC(C)C(O)C(O)C1O [methyl β-L-fucose, Methyl b-L-fucopyranoside] | inhibitory activity was not observed | significantly less | – | –
CC(=O)N[C@H]1[C@@H](O[C@H]2[C@@H](O)[C@@H](CO)O[C@@H](O[C@H]3[C@H](O[C@@H]4O[C@@H](C)[C@@H](O)[C@@H](O)[C@@H]4O)[C@@H](NC(C)=O)C(O)O[C@@H]3CO)[C@@H]2O[C@@H]2O[C@@H](C)[C@@H](O)[C@@H](O)[C@@H]2O)O[C@H](CO)[C@H](O)[C@@H]1O (stereo partly shown) [ALeY] | – | failed to produce a further increase in potency; also recorded: less effectively than LeY | – | –
CC(=O)N[C@H]1[C@H]([C@H](O)[C@H](O)CO)O[C@@](OC[C@H]2O[C@@H](O[C@H]3[C@H](O)[C@@H](O)[C@H](O)O[C@@H]3CO)[C@H](O)[C@@H](O)[C@H]2O)(C(=O)O)C[C@@H]1O [6′-SL, 6′-Sialyllactose sodium salt] | no inhibition | no inhibition | – | Inhibition of SNA binding (in words) [7]: enhance the inhibitory potential of lactose
